Source: patent US9211283B2, “Nanoparticle carrier systems based on human serum albumin for photodynamic therapy” (Biolitec Pharma Marketing Ltd, priority 2009, dated 2015)
Each block holds one compound with its values, some of them ahead of it.

Assays:
[1] = Singlet oxygen generation and triplet parameters; type: physicochemical; conditions: in ethanol
Jurkat cells = assay: Dark toxicity (trypan blue test, apoptotic blebbing); type: cell-based; conditions: 3 μM mTHPC, 1 h, 3 h, 5 h and 24 h incubation in darkness, FIG. 6A
Procedure: Intracellular uptake and phototoxicity of the present nanoparticles formulation was studied using Jurkat-cell suspensions cultured in RPMI1640 medium. All cells were incubated in 3 μM mTHPC and mTHPC loaded into different concentration of HSA based nanoparticles for set period of time (1 h, 3 h, 5 h, 24 h). The HSA-based nanoparticles of varying HSA concentration was used to determine the intracellular uptake and phototoxicity effect of the cells suspension.
Trypan blue test was used to assess the necrotic cells, apoptotic cells were detected by their change of cell shape (apoptotic blebbing).
In each case Jurkat cells were incubated in five samples. After 1 h, 3 h, 5 h. and 24 h incubation in darkness an aliquot of each sample was investigated. Trypan blue test was used to assess the necrotic cells, apoptotic cells were detected by their change of cell shape (apoptotic blebbing). Little or no effect was found. In other words dark toxicity was not observed for the mTHPC concentrations used.

Fluorescence lifetime = type: physicochemical

- ΦΔ (±0.03) (singlet oxygen quantum yield) [1]: 0.75
- τT (lifetime of triplet state) [1]: 3.3 ± 0.1 μs
- τΔ (lifetime of singlet oxygen) [1]: 64.1 ± 0.2 μs
SMILES: O=C([O-])c1c(Cl)c(Cl)c(Cl)c(Cl)c1-c1c2cc(I)c(=O)c(I)c-2oc2c(I)c([O-])c(I)cc12.[Na+].[Na+] [Rose Bengal]

SMILES: Oc1cccc(-c2c3nc(c(-c4cccc(O)c4)c4ccc([nH]4)c(-c4cccc(O)c4)c4nc(c(-c5cccc(O)c5)c5ccc2[nH]5)CC4)C=C3)c1 [mTHPC, 5,10,15,20-tetrakis(3-hydroxyphenyl)-chlorin]
- Dark toxicity (Jurkat cells): not observed

- τ3 [ns] ± 0.2 (Fluorescence lifetime; fluorescence lifetime, in EtOH (monomers)): 9.6 ns
- Amplitude [%] of τ3 (Fluorescence lifetime; in EtOH): 100%
SMILES: Oc1cccc(-c2c3nc(c(-c4cccc(O)c4)c4ccc([nH]4)c(-c4cccc(O)c4)c4nc(c(-c5cccc(O)c5)c5ccc2[nH]5)C=C4)C=C3)c1 [mTHPP, 5,10,15,20-tetrakis(m-hydroxyphenyl)-porphyrin]
